Molecular target: T1, activated JNK3 (Homo sapiens, UniProt P53779)
T1 construct: One such construct encodes amino acid residues Ser40-Glu402 of JNK3α1 and is preceded by Met and Gly residues; Met-Gly (initiation Met plus Gly added to create the NcoI site) (N); made in house; host or cells: E. coli BL21 (DE3)
Assay: JNK3 inhibition, spectrophotometric coupled-enzyme assay
Assay type: biochemical
Conditions: read-out: Activity in the JNK3 Inhibition Assay (Ki rating)
From the text: A BLAST search of the EST database using the published JNK3α1 cDNA as a query identified an EST clone (#632588) that contained the entire coding sequence for human JNK3α1. Polymerase chain reactions (PCR) using pfu polymerase (Strategene) were used to introduce restriction sites into the cDNA for cloning into the pET-15B expression vector at the NcoI and BamHI sites. The protein was expressed in E. coli. […] This truncation corresponds to Ser 2 of JNK1 and JNK2 proteins, and is preceded by a methionine (initiation) and a glycine residue. The glycine residue was added in order to introduce an NcoI site for cloning into the expression vector. In addition, systematic C-terminal truncations were performed by PCR to identify a construct that give rise to diffraction-quality crystals.
5 mg of JNK3 was diluted to 0.5 mg/ml in 50 mM HEPES buffer, pH 7.5, containing 100 mM NaCl, 5 mM DTT, 20 mM MgCl2 and 1 mM ATP. GST-MKK7(DD) was added at a molar ratio of 1:2.5 GST-MKK7:JNK3. After incubation for 30 minutes at 25° C., the reaction mixture was concentrated 5-fold by ultrafiltration in a Centriprep-30 (Amicon, Beverly, Mass.), diluted to 10 ml and an additional 1 mM ATP added. This procedure was repeated three times to remove ADP and replenish ATP. The final addition of ATP was 5 mM and the mixture incubated overnight at 4° C.
The activated JNK3/GST-MKK7(DD) reaction mixture was exchanged into 50 mM HEPES buffer, pH 7.5, containing 5 mM DTT and 5% glycerol (w/v) by dialysis or ultrafiltration. The reaction mixture was adjusted to 1.1 M potassium phosphate, pH 7.5, and purified by hydrophobic interaction chromatography (at 25° C.) using a Rainin Hydropore column. […] Activated JNK3 (i.e. doubly phosphorylated JNK3) was stored at −70° C. at 0.25-1 mg/ml.
Compounds were assayed for the inhibition of JNK3 by a spectrophotometric coupled-enzyme assay. In this assay, a fixed concentration of activated JNK3 (10 nM) was incubated with various concentrations of a potential inhibitor dissolved in DMSO for 10 minutes at 30° C. in a buffer containing 0.1 M HEPES buffer, pH 7.5, containing 10 mM MgCl2, 2.5 mM phosphoenolpyruvate, 200 μM NADH, 150 μg/mL pyruvate kinase, 50 μg/mL lactate dehydrogenase, and 200 μM EGF receptor peptide. […] The reaction was initiated by the addition of 10 μM ATP and the assay plate is inserted into the spectrophotometer's assay plate compartment that was maintained at 30° C. The decrease of absorbance at 340 nm was monitored as a function of time. The rate data as a function of inhibitor concentration was fitted to competitive inhibition kinetic model to determine the Ki.

T1 sequence (P53779 40-402): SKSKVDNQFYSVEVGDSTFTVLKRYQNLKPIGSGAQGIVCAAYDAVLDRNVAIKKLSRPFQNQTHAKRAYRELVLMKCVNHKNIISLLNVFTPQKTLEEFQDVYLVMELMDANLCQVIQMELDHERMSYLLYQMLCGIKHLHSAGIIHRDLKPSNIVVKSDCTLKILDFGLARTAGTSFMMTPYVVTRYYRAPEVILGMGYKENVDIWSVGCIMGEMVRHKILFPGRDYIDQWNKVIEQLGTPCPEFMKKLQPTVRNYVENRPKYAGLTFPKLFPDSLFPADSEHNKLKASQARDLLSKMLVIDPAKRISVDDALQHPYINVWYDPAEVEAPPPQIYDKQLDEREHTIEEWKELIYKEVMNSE

SMILES | Ki [nM]
Cc1onc(-c2ccccc2F)c1-c1ccnc(NC(=O)c2ccc(F)cc2)n1 [IIIA-59] | 100 to 1000
Cc1ccc(C(=O)Nc2nccc(-c3c(-c4ccccc4F)noc3C)n2)cc1 [IIIA-60] | 100 to 1000
Cc1onc(-c2ccccc2F)c1-c1ccnc(NC(=O)c2cccc(C#N)c2)n1 [IIIA-61] | 100 to 1000
COc1cc(C(=O)Nc2nccc(-c3c(-c4ccccc4F)noc3C)n2)cc(OC)c1OC [IIIA-62] | 100 to 1000
Cc1onc(-c2ccccc2F)c1-c1ccnc(NC(=O)c2ccc3ccccc3c2)n1 [IIIA-63] | 100 to 1000
Cc1onc(-c2c(F)cccc2F)c1-c1ccnc(NC(=O)c2cccc(Cl)c2)n1 [IIIA-64] | 100 to 1000
COc1cccc(C(=O)Nc2nccc(-c3c(-c4c(F)cccc4F)noc3C)n2)c1 [IIIA-65] | 100 to 1000
COc1cc(OC)cc(C(=O)Nc2nccc(-c3c(-c4c(F)cccc4F)noc3C)n2)c1 [IIIA-66] | 100 to 1000
Cc1cccc(C(=O)Nc2nccc(-c3c(-c4c(F)cccc4F)noc3C)n2)c1 [IIIA-67] | 100 to 1000
COc1ccc(C(=O)Nc2nccc(-c3c(-c4c(F)cccc4F)noc3C)n2)cc1 [IIIA-68] | 100 to 1000
Cc1onc(-c2c(F)cccc2F)c1-c1ccnc(NC(=O)c2ccc(F)cc2)n1 [IIIA-69] | 100 to 1000
Cc1ccc(C(=O)Nc2nccc(-c3c(-c4c(F)cccc4F)noc3C)n2)cc1 [IIIA-70] | 100 to 1000
Cc1onc(-c2c(F)cccc2F)c1-c1ccnc(NC(=O)c2cccc(C#N)c2)n1 [IIIA-71] | 100 to 1000
COc1cc(C(=O)Nc2nccc(-c3c(-c4c(F)cccc4F)noc3C)n2)cc(OC)c1OC [IIIA-72] | 100 to 1000
Cc1onc(-c2c(F)cccc2F)c1-c1ccnc(NC(=O)c2ccc3ccccc3c2)n1 [IIIA-73] | 100 to 1000
Cc1onc(-c2ccccc2)c1-c1ccnc(NC(=O)c2cccc([N+](=O)[O-])c2)n1 [IIIA-74] | < 100

SMILES | Ki [nM]
CC(=O)Nc1cccc(C(=O)Nc2nccc(-c3c(-c4ccccc4)noc3C)n2)c1 [IIIA-75] | 100 to 1000
CC(=O)Nc1nccc(-c2c(-c3ccccc3)noc2C)n1 [XA-1] | 100 to 1000
CC(=O)Nc1nccc(-c2c(-c3ccc(F)cc3)noc2C)n1 [XA-2] | > 1000
Cc1onc(-c2ccccc2)c1-c1ccnc(NC(=O)C2CCCC2)n1 [XA-3] | 100 to 1000
Cc1onc(-c2ccccc2)c1-c1ccnc(NC(=O)CC(C)C)n1 [XA-4] | 100 to 1000
CCCC(=O)Nc1nccc(-c2c(-c3ccccc3)noc2C)n1 [XA-5] | 100 to 1000
OCc1onc(-c2ccc(F)cc2)c1-c1ccnc(NC2CCCCC2)n1 [XIA-45, [4-(2-Cyclohexylamino-pyrimidin-4-yl)-3-(4-fluoro-phenyl)-isoxazol-5-yl]methanol] | < 100
OCc1onc(-c2ccc(F)cc2)c1-c1ccnc(NCCc2ccccn2)n1 [XIA-46] | < 100
COCc1onc(-c2ccc(F)cc2)c1-c1ccnc(NC2CCCCC2)n1 [XIA-47] | < 100
CCOCc1onc(-c2ccc(F)cc2)c1-c1ccnc(NC2CCCCC2)n1 [XIA-48] | < 100
COCCOCc1onc(-c2ccc(F)cc2)c1-c1ccnc(NC2CCCCC2)n1 [XIA-49] | < 100
Fc1ccc(-c2noc(COC3CCOC3)c2-c2ccnc(NC3CCCCC3)n2)cc1 (stereo not shown) [XIA-50] | < 100
O=S1(=O)CCC(OCc2onc(-c3ccc(F)cc3)c2-c2ccnc(NC3CCCCC3)n2)C1 (stereo not shown) [XIA-51] | < 100
Fc1ccc(-c2noc(COCc3ccccc3)c2-c2ccnc(NC3CCCCC3)n2)cc1 [XIA-52] | < 100
Fc1ccc(-c2noc(COCc3ccccc3)c2-c2ccnc(NCCc3ccccn3)n2)cc1 [XIA-53] | < 100
